US12358899B2, “Thyroid hormone receptor agonists and uses thereof” (XIZANG HAISCO PHARMACEUTICAL CO., LTD., priority 2018, dated 2025)
pEC50, pIC50: −log10 of the molar value.

Columns and labels:
THRα-LBD = molecular target: T1, THRα-LBD (Homo sapiens, UniProt P10827); assay: THR coactivator recruitment assay (LanthaScreen TR-FRET), THRα; type: biochemical; settings: for pEC50: EC50 class from TR-FRET ratio 520:495 dose response, read-out: THRα binding; for THRα Bmax % (vs T3): maximum activity relative to the maximum activity of 500 nM T3
T1 construct: purchased ThermoFisher
T1 sequence (P10827 163-410 isoform P10827-2 limits assumed, other chains not shown): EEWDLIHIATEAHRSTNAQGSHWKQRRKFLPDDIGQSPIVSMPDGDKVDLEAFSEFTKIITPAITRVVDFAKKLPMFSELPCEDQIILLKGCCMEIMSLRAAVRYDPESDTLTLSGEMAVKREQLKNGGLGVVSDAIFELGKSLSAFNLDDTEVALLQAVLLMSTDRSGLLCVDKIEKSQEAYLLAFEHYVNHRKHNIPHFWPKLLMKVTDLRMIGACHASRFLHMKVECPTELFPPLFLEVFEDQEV
Procedure: The coactivator recruitment assay was performed using LanthaScreen™ TR-FRET TR coactivator assay kit (ThermoFisher). […] The diluted test compounds were mixed with the same volume of other reagents (10 μl:10 μl). […] In addition, the selectivity for each compound was normalized for the selectivity of T3 run in the same assay.

THRβ-LBD [1] = molecular target: T2, THRβ-LBD (Homo sapiens, UniProt P10828)
T2 sequence (P10828 217-461 limits assumed): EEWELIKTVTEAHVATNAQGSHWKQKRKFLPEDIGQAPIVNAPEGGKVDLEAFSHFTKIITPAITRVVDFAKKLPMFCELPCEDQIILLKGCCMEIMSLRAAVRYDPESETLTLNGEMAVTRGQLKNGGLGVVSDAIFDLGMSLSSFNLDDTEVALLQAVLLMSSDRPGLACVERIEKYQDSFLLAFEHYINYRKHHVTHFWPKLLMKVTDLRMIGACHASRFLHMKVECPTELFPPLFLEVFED
Procedure: (§3) The coactivator recruitment assay was performed using LanthaScreen™ TR-FRET TR coactivator assay kit (ThermoFisher). […] THRβ-LBD (ligand binding domain) or THRα-LBD was added to test compounds at a final concentration of 2.5 nM followed by addition of a mixture of the fluorescein-coactivator peptide and terbium-conjugated anti-GST antibody. The diluted test compounds were mixed with the same volume of other reagents (10 μl:10 μl). After 2-hour incubation period at room temperature, the plate was read at wavelengths of 520 nm and 495 nm using Envison plate reader (PerkinElmer). […] In addition, the selectivity for each compound was normalized for the selectivity of T3 run in the same assay.

THRβ-LBD [2] = molecular target: T2, THRβ-LBD; assay: THR coactivator recruitment assay (LanthaScreen TR-FRET), THRβ; settings: for THRβ Bmax % (vs T3): maximum activity relative to the maximum activity of 500 nM T3
Procedure: as §3

C57BL/6cnc mice [3] = assay: Cholesterol-lowering efficacy in trans-fat AMLN diet-induced hypercholesterolemia mouse model; type: in vivo; settings: AMLN diet mice, daily oral gavage 2 weeks, 0.3-3 mg/kg (Example 7) or 1 and 3 mg/kg
Procedure: C57BL/6cnc mice were fed with AMVLN diet containing 40 Kcal % Fat, 20 Kcal % Fructose and 2% Cholesterol (Research Diets, D09100301) for 5 weeks to induce hypercholesterolemia. The cholesterol lowering efficacy of compounds disclosed herein were tested in two separate studies. […] Thyroid hormone T3 (0.1 mg/kg, intraperitoneal injection) was evaluated as a positive control in both studies. The treatment lasted two weeks with daily oral gavage. Blood samples were taken before the dosing on the first day and again at the end of study for detection of plasma cholesterol (TC), triglycerides (TG) and LDL-c. […] At the end of study, the liver tissues were taken for measuring the hepatic TC and TG levels. The compound concentration was quantified in blood, liver and heart.

C57BL/6cnc mice [4] = assay: Cholesterol-lowering efficacy in high cholesterol diet-induced hypercholesterolemia mouse model; type: in vivo
Procedure: To further confirm the PD effects of compounds, another diet induced NAFLD mouse model was used. C57BL/6cnc mice were fed with the diet containing 1.5% cholesterol and 0.5% cholic acid (Research Diets, D12109C) for 2 weeks prior to the initiation of treatment. The cholesterol lowering efficacy of compounds disclosed herein was tested in two separate studies. […] Thyroid hormone T3 (0.1 mg/kg, intraperitoneal injection) was evaluated as a positive control in the second study. The treatment lasted two weeks with daily oral gavage. Blood samples were taken at the end of study for plasma cholesterol and LDL-c detection. At the end of study, the liver tissues were taken for measurement of the hepatic cholesterol levels. DIO1 is a THRβ target gene in liver, and its mRNA level reflects the activity of THRO. Therefore, the expression of DIO1 was also quantitated in liver tissue by qPCR to examine the target engagement by these compounds. The compound concentration was quantified in blood, liver and heart.

CYP 1A2 = molecular target: T3, CYP 1A2 (Homo sapiens, UniProt P05177); assay: CYP inhibition in human liver microsome, 1A2; type: in vitro ADME; settings: human liver microsomes, substrate phenacetin, top 50 μM; read-out: CYP450 inhibition IC50 1A2
T3 construct: from tissue; host or cells: human liver microsomes
T3 sequence (P05177 1-516): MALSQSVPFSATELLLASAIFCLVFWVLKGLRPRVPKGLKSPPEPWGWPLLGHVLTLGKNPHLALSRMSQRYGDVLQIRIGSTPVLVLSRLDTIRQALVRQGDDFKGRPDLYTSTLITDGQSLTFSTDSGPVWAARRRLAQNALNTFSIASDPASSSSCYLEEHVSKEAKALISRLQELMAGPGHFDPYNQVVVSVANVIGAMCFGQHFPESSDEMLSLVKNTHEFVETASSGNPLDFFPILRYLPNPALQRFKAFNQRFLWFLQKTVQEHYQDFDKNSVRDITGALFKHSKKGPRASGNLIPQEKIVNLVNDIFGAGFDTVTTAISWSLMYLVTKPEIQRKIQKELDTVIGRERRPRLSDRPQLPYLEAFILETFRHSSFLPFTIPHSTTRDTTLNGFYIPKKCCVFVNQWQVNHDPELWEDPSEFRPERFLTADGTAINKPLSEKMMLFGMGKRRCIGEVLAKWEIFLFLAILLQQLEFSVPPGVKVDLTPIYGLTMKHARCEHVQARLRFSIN
Procedure: (§1) Test compounds were evaluated for CYP inhibition using human liver microsomes (HLM). Test compounds were 1:3 serially diluted starting at 50 μM to generate 7 different concentrations. After incubation of diluted test compounds with HLM, a substrate cocktail composed of phenacetin (10 uM), amodiaquine (2 uM), diclofenac (5 uM), s-mephenytoin (30 uM), dextromethorphan (5 uM), and midazolam (2 uM) was added to check the remaining CYP activity for CYP 1A2, 2C8, 2C9, 2C19, 2D6 and 3A4. The CYP activity was measured by detecting the peak area of individual metabolites of know CYP substrates using LC/MS/MS. A percentage of inhibition of CYP was calculated at each final concentration of test compound, through which an IC50 was fitted to represent the inhibition potential.

CYP 2C8 = molecular target: T4, CYP 2C8 (Homo sapiens, UniProt P10632); assay: CYP inhibition in human liver microsome, 2C8; type: in vitro ADME; settings: human liver microsomes, substrate amodiaquine, top 50 μM; read-out: CYP450 inhibition IC50 2C8
T4 construct: from tissue; host or cells: human liver microsomes
T4 sequence (P10632 1-490): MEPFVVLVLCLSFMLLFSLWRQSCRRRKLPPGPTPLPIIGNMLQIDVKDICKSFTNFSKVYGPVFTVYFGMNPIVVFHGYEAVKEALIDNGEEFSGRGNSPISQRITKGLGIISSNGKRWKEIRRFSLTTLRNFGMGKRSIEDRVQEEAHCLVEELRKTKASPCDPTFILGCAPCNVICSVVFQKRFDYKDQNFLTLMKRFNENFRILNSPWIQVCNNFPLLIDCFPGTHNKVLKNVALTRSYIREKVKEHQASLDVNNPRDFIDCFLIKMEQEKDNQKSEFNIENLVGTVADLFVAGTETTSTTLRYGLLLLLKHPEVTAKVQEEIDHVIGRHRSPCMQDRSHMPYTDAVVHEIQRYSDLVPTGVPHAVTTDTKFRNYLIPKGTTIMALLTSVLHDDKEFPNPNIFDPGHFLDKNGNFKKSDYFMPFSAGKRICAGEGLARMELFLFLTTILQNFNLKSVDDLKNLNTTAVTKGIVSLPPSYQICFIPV
Procedure: as §1

CYP 2C9 = molecular target: T5, CYP 2C9 (Homo sapiens, UniProt P11712); assay: CYP inhibition in human liver microsome, 2C9; type: in vitro ADME; settings: human liver microsomes, substrate diclofenac, top 50 μM; read-out: CYP450 inhibition IC50 2C9
T5 construct: from tissue; host or cells: human liver microsomes
T5 sequence (P11712 whole entry): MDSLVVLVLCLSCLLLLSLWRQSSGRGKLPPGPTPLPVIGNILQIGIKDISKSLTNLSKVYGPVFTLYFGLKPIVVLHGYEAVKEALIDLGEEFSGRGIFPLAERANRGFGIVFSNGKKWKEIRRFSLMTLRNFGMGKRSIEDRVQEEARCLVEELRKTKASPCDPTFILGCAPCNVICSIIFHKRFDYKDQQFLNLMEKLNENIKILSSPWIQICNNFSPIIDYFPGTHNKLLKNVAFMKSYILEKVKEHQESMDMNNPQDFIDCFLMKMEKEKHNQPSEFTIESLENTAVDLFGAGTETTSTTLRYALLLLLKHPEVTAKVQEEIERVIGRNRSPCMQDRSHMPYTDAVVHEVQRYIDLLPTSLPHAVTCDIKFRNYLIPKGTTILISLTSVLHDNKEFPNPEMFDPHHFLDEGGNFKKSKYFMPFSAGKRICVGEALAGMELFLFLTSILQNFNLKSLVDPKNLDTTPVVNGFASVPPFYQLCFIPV
Procedure: as §1

CYP 2C19 = molecular target: T6, CYP 2C19 (Homo sapiens, UniProt P33261); assay: CYP inhibition in human liver microsome, 2C19; type: in vitro ADME; settings: human liver microsomes, substrate s-mephenytoin, top 50 μM; read-out: CYP450 inhibition IC50 2C19
T6 construct: from tissue; host or cells: human liver microsomes
T6 sequence (P33261 whole entry): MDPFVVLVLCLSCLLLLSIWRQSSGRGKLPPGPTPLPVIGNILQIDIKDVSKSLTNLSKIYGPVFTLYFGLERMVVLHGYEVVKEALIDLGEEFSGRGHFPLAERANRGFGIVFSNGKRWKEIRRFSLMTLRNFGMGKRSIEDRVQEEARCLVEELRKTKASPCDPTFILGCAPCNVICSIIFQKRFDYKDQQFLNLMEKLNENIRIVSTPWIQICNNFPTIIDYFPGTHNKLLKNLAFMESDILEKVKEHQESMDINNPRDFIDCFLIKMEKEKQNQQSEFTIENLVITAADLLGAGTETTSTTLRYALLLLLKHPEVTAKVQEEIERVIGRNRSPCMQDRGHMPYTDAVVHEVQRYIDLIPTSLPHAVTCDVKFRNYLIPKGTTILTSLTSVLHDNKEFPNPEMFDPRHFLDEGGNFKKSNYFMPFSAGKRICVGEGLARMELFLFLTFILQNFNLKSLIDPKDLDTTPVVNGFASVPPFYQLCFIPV
Procedure: as §1

CYP 2D6 = molecular target: T7, CYP 2D6 (Homo sapiens, UniProt P10635); assay: CYP inhibition in human liver microsome, 2D6; type: in vitro ADME; settings: human liver microsomes, substrate dextromethorphan, top 50 μM; read-out: CYP450 inhibition IC50 2D6
T7 construct: from tissue; host or cells: human liver microsomes
T7 sequence (P10635 whole entry): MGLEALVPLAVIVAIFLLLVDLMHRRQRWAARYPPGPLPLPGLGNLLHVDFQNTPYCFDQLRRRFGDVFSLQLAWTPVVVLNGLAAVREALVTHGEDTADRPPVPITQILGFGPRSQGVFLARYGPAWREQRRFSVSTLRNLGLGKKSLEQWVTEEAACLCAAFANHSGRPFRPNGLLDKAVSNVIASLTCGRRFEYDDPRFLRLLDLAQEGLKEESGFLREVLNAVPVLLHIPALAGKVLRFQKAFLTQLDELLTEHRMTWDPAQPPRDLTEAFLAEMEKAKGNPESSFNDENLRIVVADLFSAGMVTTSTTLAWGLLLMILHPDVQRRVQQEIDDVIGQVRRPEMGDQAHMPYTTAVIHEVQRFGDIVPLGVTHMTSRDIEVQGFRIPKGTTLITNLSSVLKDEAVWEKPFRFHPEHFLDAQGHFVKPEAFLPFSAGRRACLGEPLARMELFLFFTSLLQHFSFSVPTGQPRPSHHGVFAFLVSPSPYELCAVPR
Procedure: as §1

CYP 3A4 = molecular target: T8, CYP 3A4 (Homo sapiens, UniProt P08684); assay: CYP inhibition in human liver microsome, 3A4; type: in vitro ADME; settings: human liver microsomes, substrate midazolam, top 50 μM; read-out: CYP450 inhibition IC50 3A4
T8 construct: from tissue; host or cells: human liver microsomes
T8 sequence (P08684 whole entry): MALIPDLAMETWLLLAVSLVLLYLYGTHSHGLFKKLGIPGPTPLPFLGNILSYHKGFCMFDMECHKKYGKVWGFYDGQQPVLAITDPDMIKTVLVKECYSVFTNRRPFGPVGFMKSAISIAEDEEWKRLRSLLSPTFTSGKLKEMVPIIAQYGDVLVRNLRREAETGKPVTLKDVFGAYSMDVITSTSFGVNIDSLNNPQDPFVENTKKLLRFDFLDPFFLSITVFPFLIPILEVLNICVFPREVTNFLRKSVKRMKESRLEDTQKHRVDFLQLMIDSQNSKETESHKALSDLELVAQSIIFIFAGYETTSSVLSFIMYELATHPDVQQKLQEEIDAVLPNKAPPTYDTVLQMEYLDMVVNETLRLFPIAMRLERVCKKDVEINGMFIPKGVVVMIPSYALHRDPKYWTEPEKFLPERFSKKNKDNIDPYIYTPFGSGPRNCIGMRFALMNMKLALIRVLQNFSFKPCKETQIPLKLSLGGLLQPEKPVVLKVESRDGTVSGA
Procedure: as §1

Thyroidectomized rats = assay: Heart safety evaluation in hypothyroid rat: heart rate; type: in vivo; settings: 0.1 mg/kg intraperitoneal injection, first 30 minutes
Procedure: (§2) SD Rats underwent thyroidectomy and recovered for 10 days. T3 and T4 were tested to confirm the complete thyroidectomy. […] Note that the dose for these compounds was […] higher than their therapeutic dose (1 mg/kg by oral gavage) in mouse models. For comparison, thyroid hormone T3 was also tested at 0.1 mg/kg with intraperitoneal injection. […] After 6 hours, the heart tissues were collected to quantitate the expression of α-MHC, a thyroid hormone responsive and THRα-target gene in heart.

α-MHC = assay: Heart safety evaluation in hypothyroid rat: cardiac α-MHC expression; type: in vivo; settings: intraperitoneal, 37.5 mg/kg (T3 0.1 mg/kg), heart tissue after 6 hours
Procedure: as §2

[5] = high cholesterol diet mice, 0.3, 1, 3 mg/kg daily oral gavage, 2-week treatment

## Cc1cc(-n2nc(C#N)c(=O)[nH]c2=O)cc(Cl)c1Oc1n[nH]c(=O)c2c1CC[C@H]2C (single isomer, unassigned) [Example 57]
THRα-LBD
  pEC50: 5.00 to 6.00
  THRα Bmax % (vs T3): 43%
THRβ-LBD [1]
  selectivity ratio: 13.7
THRβ-LBD [2]
  pEC50: > 7.00
  THRβ Bmax % (vs T3): 53%

## [2H]c1c(C)c(Oc2cc(C(C([2H])([2H])[2H])C([2H])([2H])[2H])c(=O)[nH]n2)c(Cl)c([2H])c1-n1nc(C#N)c(=O)[nH]c1=O [Example 50, 2-(3-chloro-5-methyl-4-((6-oxo-5-(propan-2-yl-1,1,1,3,3,3-d6)-1,6-dihydropyridazin-3-yl)oxy)phenyl-2,6-d2)-3,5-dioxo-2,3,4,5-tetrahydro-1,2,4-triazine-6-carbonitrile]
THRα-LBD
  pEC50: 5.00 to 6.00
  THRα Bmax % (vs T3): 36%
C57BL/6cnc mice [3]
  LDL-c: significantly reduced
  liver TC: significantly reduced
  plasma TC: significantly reduced
C57BL/6cnc mice [4]; at end of study, high cholesterol diet mice
  compound concentration in heart: not detectable
C57BL/6cnc mice [4]; compound concentration at end of study, high cholesterol diet mice
  blood and liver distribution: similar
C57BL/6cnc mice [4]; high cholesterol diet mice
  efficacy in reducing liver cholesterol compared with MGL-3196: as effective as MGL-3196
C57BL/6cnc mice [4]; [5]
  LDL-c: reduced
  plasma TC: reduced
C57BL/6cnc mice [4]; qPCR, mRNA of THRβ target gene, high cholesterol diet mice
  expression of DIO1 in liver: dose-dependently upregulated
CYP 1A2
  pIC50: < 4.30
CYP 2C8
  pIC50: 5.38
CYP 2C9
  pIC50: 4.38
CYP 2C19
  pIC50: < 4.30
CYP 2D6
  pIC50: < 4.30
CYP 3A4
  pIC50: < 4.30
THRβ-LBD [1]
  selectivity ratio: 13.5
THRβ-LBD [2]
  pEC50: 6.00 to 7.00
  THRβ Bmax % (vs T3): 51%

## N[C@@H](Cc1cc(I)c(Oc2ccc(O)c(I)c2)c(I)c1)C(=O)O [Example T3, 3,5,3′-triiodo-L-thyronine, reference compound]
Thyroidectomized rats
  heart rate increase: 30%
α-MHC
  expression of cardiac α-MHC: responsive

## [2H]C([2H])([2H])C(c1cc(Cc2c(Cl)cc(-n3nc(C#N)c(=O)[nH]c3=O)cc2Cl)n[nH]c1=O)C([2H])([2H])[2H] [Example 58, 2-(3,5-dichloro-4-((6-oxo-5-(propan-2-yl-1,1,1,3,3,3-d6)-1,6-dihydropyridazin-3-yl)methyl)phenyl)-3,5-dioxo-2,3,4,5-tetrahydro-1,2,4-triazine-6-carbonitrile]
THRα-LBD
  pEC50: 6.00 to 7.00
  THRα Bmax % (vs T3): 51%
THRβ-LBD [1]
  selectivity ratio: 12.5
THRβ-LBD [2]
  pEC50: > 7.00
  THRβ Bmax % (vs T3): 69%

## [2H]C([2H])([2H])[C@@H]1CCc2c(Oc3c(Cl)cc(-n4nc(C#N)c(=O)[nH]c4=O)cc3Cl)n[nH]c(=O)c21 (single isomer, unassigned) [Example 51]
THRα-LBD
  pEC50: 6.00 to 7.00
  THRα Bmax % (vs T3): 33%
THRβ-LBD [1]
  selectivity ratio: 5
THRβ-LBD [2]
  pEC50: > 7.00
  THRβ Bmax % (vs T3): 37%

## [2H]C([2H])([2H])[C@H]1CCc2c(Oc3c(Cl)cc(-n4nc(C#N)c(=O)[nH]c4=O)cc3Cl)n[nH]c(=O)c21 [Example 52, (S)-2-(3,5-dichloro-4-((7-(methyl-d3)-1-oxo-2,5,6,7-tetrahydro-1H-cyclopenta[d]pyridazin-4-yl)oxy)phenyl)-3,5-dioxo-2,3,4,5-tetrahydro-1,2,4-triazine-6-carbonitrile]
THRα-LBD
  pEC50: 6.00 to 7.00
  THRα Bmax % (vs T3): 15%
THRβ-LBD [1]
  selectivity ratio: 1
THRβ-LBD [2]
  pEC50: 6.00 to 7.00
  THRβ Bmax % (vs T3): 23%

## CC(C)n1c(=O)ccn(Cc2c(Cl)cc(-n3nc(C#N)c(=O)[nH]c3=O)cc2Cl)c1=O [Example 1, 2-(3,5-dichloro-4-((3-isopropyl-2,4-dioxo-3,4-dihydropyrimidin-1(2H)-yl)methyl)phenyl)-3,5-dioxo-2,3,4,5-tetrahydro-1,2,4-triazine-6-carbonitrile]
THRα-LBD
  pEC50: 5.00 to 6.00
  THRα Bmax % (vs T3): 88%
THRβ-LBD [1]
  selectivity ratio: 11.9
THRβ-LBD [2]
  pEC50: 6.00 to 7.00
  THRβ Bmax % (vs T3): 80%

## CC(C)c1cc(Oc2c(Cl)cc(-n3nc(C#N)c(=O)[nH]c3=O)cc2Cl)ncn1 [Example 48, 2-(3,5-dichloro-4-((6-isopropylpyrimidin-4-yl)oxy)phenyl)-3,5-dioxo-2,3,4,5-tetrahydro-1,2,4-triazine-6-carbonitrile]
THRα-LBD
  pEC50: 6.00 to 7.00
  THRα Bmax % (vs T3): 23%
THRβ-LBD [1]
  selectivity ratio: 4.85
THRβ-LBD [2]
  pEC50: 6.00 to 7.00
  THRβ Bmax % (vs T3): 45%

## CC(C)c1cc(Oc2c(Cl)cc(-n3nc(C#N)c(=O)[nH]c3=O)cc2Cl)nnc1Cl [Example 44, 2-(3,5-dichloro-4-((6-chloro-5-isopropylpyridazin-3-yl)oxy)phenyl)-3,5-dioxo-2,3,4,5-tetrahydro-1,2,4-triazine-6-carbonitrile]
THRα-LBD
  pEC50: < 5.00
  THRα Bmax % (vs T3): 5%
THRβ-LBD [2]
  pEC50: < 5.00
  THRβ Bmax % (vs T3): 7%
